Laboratory results reported in US20250382346A1, “NEURONAL PROMOTERS AND USES THEREOF” (priority 2023, published 2025).

System: hM3Dq or rM3Ds
Experiment: Locomotion test in macaques after nigral DREADD AAV and CNO
Type: in vivo
Experimental: To guide the virus injection in SNr, a guide grid of multiple holes spaced by 1 mm was installed on each subject vertically above the SN. By filling vitamin E in these holes, the accurate coordinates for injection could be obtained from the T1-weighted MRI images (3T Tim Trio scanner, Siemens). Virus injections were performed in nine sites covering the whole SNr, and a total volume of 27 μL virus was unilaterally injected in the right SNr at the speed of 300 nL/min.
To intracranially administrate drug and/or perform electrophysiological recording, a recording chamber covering from anterior caudate to posterior GPi was fixed on the skull with 6 titanium screws and dental cement. Each subject was allowed to recover from the surgery for at least 6 weeks prior to further studies.
Locomotion Test: The locomotion tests for monkeys were conducted in a custom-made observation cage (100 cm×100 cm×100 cm). The top and front of the cage were made of toughened glass in order to gain a clear view for behavioral recording. Monkeys were habituated to the observation cage by placing them inside for 30 minutes on three separate days.
For monkeys injected with AAV8R12-G88P3-HA-hM3Dq, CNO was intracranially infused into the dorsomedial caudate through the recording chamber. To infuse while the animal was awake, the monkey was trained to sit in a primate chair specially designed with its head fixed to the primate chair by a mask made of thermoplastic materials. Injections were conducted through a 33-Gauge needle connected to a 250 μL syringe via a polyethylene pipe (Hamilton, Neuros). […] The needle was held for 5 minutes for drug diffusion before retraction. For monkeys injected with AAV8R12-G88P7-rM3Ds-2A-EYFP, CNO was infused via intramuscular injection (10 mg/kg). […] Videos capturing the subjects' behavior were recorded for at least 90 minutes. Animal behaviors from 30-90 minutes after saline/CNO infusion were further analyzed and quantified.
For rotation analysis, only movements that occurred lower than 30 cm on the z-axis were counted. To determine the direction of the rotation, we first computed the center for the rotation data in the x-y plane as (x0, y0) by averaging all data points, and then we computed the angle relative to (x0, y0) for each time point by the following formula:
where θi represents the rotating angle at time i, and (xi, yi) represents the x-y coordinate at time i. We then calculated the change of rotating angle as Δθi=θi−θi−1. For right nigral injections, when Δθ<0, the direction of the rotation was anticlockwise and was labeled as a contraversive rotation. When Δθ>0, the direction of the rotation was clockwise and was labeled as an ipsiversive rotation. The raw data were analyzed and plotted through a custom R package. Code is available on Github (github.com/chenyef/PD_ana/blob/main/Behavior_ana.txt).

C[N+]1([O-])CCN(C2=Nc3cc(Cl)ccc3Nc3ccccc32)CC1 [CNO, Clozapine-N-oxide]
muscle tone, electromyogram recordings (following CNO infusions, macaques): increase in the muscle tone of the contralateral biceps brachii | contraversive rotations (FIG. 10C), mean±SEM (hM3Dq (intracranial CNO) or rM3Ds (systemic CNO) macaques, n=4, saline 1.004±0.2667): 6.649±1.662 | velocity of ipsiversive rotations (FIG. 10H), mean±SEM (n=4 macaques, saline 37.43±3.264, not significant): 41.37±6.566 | speed during contraversive rotations (FIG. 10G), mean±SEM (n=4 macaques, saline 38.42±5.465): 46.98±6.669 | time in the top portion of the observing cage (FIG. 10D), mean±SEM (n=4 macaques, saline 68.42±10.7): 33.74±2.641 | total distance (FIG. 10F), mean±SEM (n=4 macaques, saline 71.53±15.4, not significant): 97.37±19.41 | immobile time (FIG. 10E), mean±SEM (n=4 macaques, saline 107.1±2.322, not significant): 89.13±8.379
